Assay results: BindingDB's records for doi:10.1016/j.chembiol.2014.09.011 (Astrazeneca R&D, 2014)

Experiments:
Test in all cases: AMPD Enzymatic Activity Assay
Settings in all cases: pH 7.4
AMP deaminase 1 [1] = target: T1, AMP deaminase 1 (Homo sapiens, UniProt P23109)
T1 sequence (P23109 whole entry): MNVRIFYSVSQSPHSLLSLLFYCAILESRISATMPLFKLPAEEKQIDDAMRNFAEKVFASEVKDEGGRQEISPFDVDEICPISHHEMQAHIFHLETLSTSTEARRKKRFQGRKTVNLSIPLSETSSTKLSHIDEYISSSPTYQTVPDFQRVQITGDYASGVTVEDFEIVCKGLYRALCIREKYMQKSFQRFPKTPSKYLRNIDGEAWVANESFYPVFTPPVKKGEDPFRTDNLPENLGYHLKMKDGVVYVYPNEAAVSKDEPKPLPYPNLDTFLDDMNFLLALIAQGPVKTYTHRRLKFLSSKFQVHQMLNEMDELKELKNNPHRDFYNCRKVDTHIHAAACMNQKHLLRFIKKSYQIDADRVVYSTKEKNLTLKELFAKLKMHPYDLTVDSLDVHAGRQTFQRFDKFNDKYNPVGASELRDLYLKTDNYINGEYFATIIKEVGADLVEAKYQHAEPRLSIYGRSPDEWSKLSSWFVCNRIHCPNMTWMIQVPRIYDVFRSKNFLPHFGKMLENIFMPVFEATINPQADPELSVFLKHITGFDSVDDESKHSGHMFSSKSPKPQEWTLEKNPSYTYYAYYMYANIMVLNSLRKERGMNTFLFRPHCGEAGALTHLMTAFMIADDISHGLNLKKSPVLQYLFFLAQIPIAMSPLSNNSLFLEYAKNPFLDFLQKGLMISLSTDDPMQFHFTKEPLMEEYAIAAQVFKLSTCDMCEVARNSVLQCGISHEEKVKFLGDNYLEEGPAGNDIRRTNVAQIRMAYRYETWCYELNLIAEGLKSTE
Protocol: (§1) AMPD1 was added to buffer A (50 mM HEPES, 150 mM KCl, 5 mM MgCl2, and 0.5 mMglutathione [pH 7.4]) to a concentration of 10 nM. A substrate mix consistingof 2mMNADPH, 6mMa-ketoglutarate, 8mMAMP, and 15 U GDH was prepared in buffer A. Substrate mix ([…]) was added to the plate, followed by centrifugation and incubation for 1 hr. Detection was by absorbance at 340 nm following the conversion of NADPH to NADP+. Recombinant AMPD enzyme activity assays were performed in a 384-well format using the same conditions as described above, except the assay volume was […] and the AMP concentration for the AMPD2 assay was 8 mM. Different AMPD enzyme concentrations were used to have linear reactions: hAMPD1 (4 nM), hAMPD2 (38 nM), hAMPD3 (1 nM), rAMPD1 (116 nM), rAMPD2 (53 nM), rAMPD3 (31 nM), and mAMPD1 (816 nM).

AMP deaminase 1 [2] = target: T2, AMP deaminase 1 (Mus musculus, UniProt Q3V1D3)
T2 sequence (Q3V1D3 whole entry): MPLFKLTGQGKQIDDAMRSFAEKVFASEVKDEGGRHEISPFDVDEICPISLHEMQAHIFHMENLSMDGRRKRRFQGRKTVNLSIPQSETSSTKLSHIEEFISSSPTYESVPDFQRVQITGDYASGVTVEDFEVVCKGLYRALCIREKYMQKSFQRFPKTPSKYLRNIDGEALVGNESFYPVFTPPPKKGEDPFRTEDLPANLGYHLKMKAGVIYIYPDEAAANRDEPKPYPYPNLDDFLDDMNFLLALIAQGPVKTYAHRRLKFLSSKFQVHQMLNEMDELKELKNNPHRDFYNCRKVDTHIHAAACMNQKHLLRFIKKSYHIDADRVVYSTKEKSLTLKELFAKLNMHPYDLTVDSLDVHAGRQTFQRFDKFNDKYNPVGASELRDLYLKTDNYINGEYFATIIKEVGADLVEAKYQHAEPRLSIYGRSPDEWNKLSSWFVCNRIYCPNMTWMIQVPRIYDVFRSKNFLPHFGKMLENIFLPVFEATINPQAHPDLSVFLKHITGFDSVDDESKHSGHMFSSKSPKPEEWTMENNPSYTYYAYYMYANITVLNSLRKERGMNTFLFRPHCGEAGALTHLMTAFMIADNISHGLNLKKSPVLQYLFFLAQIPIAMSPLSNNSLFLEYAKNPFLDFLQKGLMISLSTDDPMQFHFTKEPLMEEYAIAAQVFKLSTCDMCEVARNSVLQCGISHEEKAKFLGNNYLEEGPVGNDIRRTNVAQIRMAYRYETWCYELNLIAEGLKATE
Protocol: as §1

AMP deaminase 1 [3] = target: T3, AMP deaminase 1 (Rattus norvegicus, UniProt P10759)
T3 sequence (P10759 whole entry): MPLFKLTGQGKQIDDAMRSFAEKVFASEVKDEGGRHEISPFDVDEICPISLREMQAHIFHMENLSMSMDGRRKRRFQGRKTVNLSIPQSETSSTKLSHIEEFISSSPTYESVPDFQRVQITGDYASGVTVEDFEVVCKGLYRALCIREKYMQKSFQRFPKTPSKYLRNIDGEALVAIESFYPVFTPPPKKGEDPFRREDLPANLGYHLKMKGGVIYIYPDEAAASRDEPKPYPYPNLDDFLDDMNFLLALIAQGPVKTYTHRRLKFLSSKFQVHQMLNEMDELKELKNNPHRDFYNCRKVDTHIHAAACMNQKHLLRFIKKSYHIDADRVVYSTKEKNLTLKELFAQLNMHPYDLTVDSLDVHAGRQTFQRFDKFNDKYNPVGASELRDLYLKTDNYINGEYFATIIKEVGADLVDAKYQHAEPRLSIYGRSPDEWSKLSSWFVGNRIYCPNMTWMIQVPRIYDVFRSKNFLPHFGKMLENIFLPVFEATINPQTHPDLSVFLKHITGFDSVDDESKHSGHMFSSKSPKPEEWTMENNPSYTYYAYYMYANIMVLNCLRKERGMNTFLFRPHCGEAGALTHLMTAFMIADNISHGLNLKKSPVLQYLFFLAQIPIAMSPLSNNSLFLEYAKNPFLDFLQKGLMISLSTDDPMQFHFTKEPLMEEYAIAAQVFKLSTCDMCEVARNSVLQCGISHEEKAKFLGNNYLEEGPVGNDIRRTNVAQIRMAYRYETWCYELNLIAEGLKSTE
Protocol: as §1

AMP deaminase 2 = target: T4, AMP deaminase 2 (Rattus norvegicus, UniProt Q02356)
T4 sequence (Q02356 whole entry): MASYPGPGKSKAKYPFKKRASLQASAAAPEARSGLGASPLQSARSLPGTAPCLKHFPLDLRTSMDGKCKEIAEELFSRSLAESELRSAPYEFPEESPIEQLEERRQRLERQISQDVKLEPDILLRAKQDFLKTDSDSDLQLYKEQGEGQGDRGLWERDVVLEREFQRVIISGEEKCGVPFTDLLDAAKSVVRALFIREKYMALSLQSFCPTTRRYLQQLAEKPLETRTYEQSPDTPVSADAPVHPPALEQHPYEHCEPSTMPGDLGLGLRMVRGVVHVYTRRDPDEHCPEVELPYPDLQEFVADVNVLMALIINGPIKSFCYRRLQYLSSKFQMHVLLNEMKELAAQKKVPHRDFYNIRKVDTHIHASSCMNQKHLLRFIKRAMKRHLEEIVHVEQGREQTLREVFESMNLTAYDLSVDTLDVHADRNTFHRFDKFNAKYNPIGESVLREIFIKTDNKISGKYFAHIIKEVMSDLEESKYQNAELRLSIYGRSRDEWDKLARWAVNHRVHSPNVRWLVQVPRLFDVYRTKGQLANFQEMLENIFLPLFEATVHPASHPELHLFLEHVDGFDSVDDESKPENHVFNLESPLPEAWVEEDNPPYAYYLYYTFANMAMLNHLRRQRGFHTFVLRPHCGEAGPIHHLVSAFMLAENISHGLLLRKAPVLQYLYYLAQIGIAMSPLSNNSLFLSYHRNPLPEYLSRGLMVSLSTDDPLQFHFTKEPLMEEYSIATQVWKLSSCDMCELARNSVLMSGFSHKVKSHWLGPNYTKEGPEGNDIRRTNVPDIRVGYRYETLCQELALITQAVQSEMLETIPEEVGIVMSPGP
Protocol: as §1

Row | IC50 (AMP deaminase 1 [1]) | IC50 (AMP deaminase 1 [2]) | IC50 (AMP deaminase 1 [3]) | IC50 (AMP deaminase 2) | Compound
1 | 0.62 µM |  |  |  | C[C@@H](NCc1ccc(-c2ccc(C(=O)O)cn2)cc1)c1cccc2ccccc12 [6-[4-({[(1R)-1-(naphthalen-1-yl)ethyl]amino}methyl)phenyl]pyridine-3-carboxylic acid (Compound 1)]
2 | 0.024 µM | 0.02 µM | 0.02 µM | 0.3 µM | COc1cc(-c2ccc(CN[C@H](C)c3cccc4ccncc34)cc2)ccc1C(=O)O [4-[4-({[(1R)-1-(isoquinolin-8-yl)ethyl]amino}methyl)phenyl]-2-methoxybenzoic acid (Compound 4)]
